This is an account of results in ChEMBL document CHEMBL3779822, “Indolyl-3-ethanone-α-thioethers: A promising new class of non-toxic antimalarial agents” (Eur J Med Chem, 2016).

For orientation: IC50 means the concentration needed to halve the response being measured.

For one assay, the system named is Plasmodium falciparum. Nature of the assay: Antiplasmodial activity against Plasmodium falciparum 3D7 infected in human erythrocytes assessed as inhibition of parasite growth after 48 hrs by parasite lactate dehydrogenase assay. It is filed as functional, organism-based. The following applies: 3D7, 48 h.
A further assay has as its system HeLa. The experiment in a line: Growth inhibition of human HeLa cells after 48 hrs by resazurin assay. It is filed as cell-based. (In general: Resazurin is reduced to fluorescent resorufin, in cell work by metabolically active cells.)
Assay [1] can be described thus: Selectivity index, ratio if IC50 for human HeLa cells to IC50 for Plasmodium falciparum 3D7. The assay is classed as functional.

In the case of `O=C(COc1ccccc1)c1c[nH]c2ccccc12`, the IC50 with Plasmodium falciparum and in the assay with HeLa was over 500 µM each time.

Regarding `O=C(CSc1ccc(Br)cc1)c1c[nH]c2ccc(Cl)cc12`, the IC50 in the assay on Plasmodium falciparum was 0.09 µM; in the assay with HeLa it was over 500 µM. The “Ratio IC50” value in assay [1] came out at 5556.

Regarding `CC(SCC(=O)c1c[nH]c2ccccc12)c1ccccc1` (stereo not drawn), the IC50 stood at 122 µM in the assay on Plasmodium falciparum and 76 µM with HeLa. The “Ratio IC50” value in assay [1] is recorded as 1.

As to `CC(C)(C)c1ccc(SCC(=O)c2c[nH]c3ccccc23)cc1`, the IC50 in the assay on Plasmodium falciparum is 8.9 µM; with HeLa, over 500 µM. Moreover, the “Ratio IC50” value in assay [1] is 56.

Consider `O=C(CSCc1ccc(Br)cc1)c1c[nH]c2ccccc12`, for which the IC50 in the assay with Plasmodium falciparum and with HeLa was over 500 µM throughout.

`O=C(CSc1ccc(Br)cc1)c1c[nH]c2c(F)cccc12`: the IC50 with Plasmodium falciparum is 2.4 µM; with HeLa, over 500 µM. Besides, the “Ratio IC50” value in assay [1] amounted to 208.

Turning to `O=C(CNc1ccccc1)c1c[nH]c2ccccc12`, the IC50 in the assay with Plasmodium falciparum was 73 µM; in the assay on HeLa it was over 500 µM. In addition, the “Ratio IC50” value in assay [1] amounted to 7.

Consider `O=C(CSCc1ccc(F)cc1)c1c[nH]c2ccccc12`, for which the IC50 in the assay on Plasmodium falciparum was 58 µM; in the assay with HeLa, over 500 µM. Further, in assay [1], the “Ratio IC50” value is recorded as 9.

Take `O=C(CSCc1cccc(Br)c1)c1c[nH]c2ccccc12`: the IC50 in the assay with Plasmodium falciparum came out at 13 µM; in the assay on HeLa it was 35 µM. The “Ratio IC50” value in assay [1] is on record as 3.

Turning to `O=C(CSc1ccccc1Cl)c1c[nH]c2ccccc12`, the IC50 with Plasmodium falciparum and in the assay with HeLa was over 500 µM in each case.

For `O=C(CSc1ccc(Br)cc1)c1c[nH]c2c(I)cccc12`, the values for the IC50 in the assay on Plasmodium falciparum and in the assay on HeLa were 45 µM and 56 µM, respectively. Besides, the “Ratio IC50” value in assay [1] came out at 1.

As for `O=C(CSCc1ccc(Cl)cc1)c1c[nH]c2ccccc12`, the IC50 in the assay on Plasmodium falciparum and with HeLa was over 500 µM in each case.

As for `O=C(CSc1ccc(Br)cc1)c1c[nH]c2ccccc12`, the IC50 in the assay on Plasmodium falciparum was 1.3 µM; with HeLa, over 500 µM. Further, in assay [1], the “Ratio IC50” value is given as 385.

As for `O=C(CSc1ccc(Br)cc1)c1c[nH]c2cc(F)ccc12`, the IC50 in the assay with Plasmodium falciparum is 1.3 µM; with HeLa, over 500 µM. The “Ratio IC50” value in assay [1] amounted to 385.

Turning to `Cn1cc(C(=O)CSc2ccc(Br)cc2)c2ccccc21`, the IC50 in the assay with Plasmodium falciparum was 15 µM; in the assay with HeLa, over 500 µM. The “Ratio IC50” value in assay [1] is recorded as 33.

In the case of `CN(C)c1ccc(SCC(=O)c2c[nH]c3ccccc23)cc1`, the IC50 with Plasmodium falciparum is 105 µM; with HeLa, 60 µM. For the same compound, the “Ratio IC50” value in assay [1] is 1.

Turning to `Cc1ccc(SCC(=O)c2c[nH]c3ccccc23)cc1`, the values for the IC50 in the assay with Plasmodium falciparum and in the assay with HeLa were 19 µM and over 500 µM, respectively. Further, the “Ratio IC50” value in assay [1] amounted to 26.

With `O=C(CSCCc1ccccc1)c1c[nH]c2ccccc12`, the IC50 stood at 7.8 µM in the assay with Plasmodium falciparum and 14 µM in the assay on HeLa. For the same compound, the “Ratio IC50” value in assay [1] stood at 2.

Take `O=C(CSc1ccc(Br)cc1)c1c[nH]c2ccc(Br)cc12`: the IC50 with Plasmodium falciparum was 0.12 µM; in the assay with HeLa, over 500 µM. The “Ratio IC50” value in assay [1] worked out at 4167.

Turning to `O=C(CSc1ccc([N+](=O)[O-])cc1)c1c[nH]c2ccccc12`, the half-inhibitory concentration (IC50) in the assay on Plasmodium falciparum is 0.24 µM; with HeLa, over 500 µM. Besides, the “Ratio IC50” value in assay [1] worked out at 2083.

Take `O=C(COc1ccc(Cl)cc1)c1c[nH]c2ccccc12`: the IC50 was 1.8 µM in the assay with Plasmodium falciparum and over 500 µM in the assay with HeLa. In addition, in assay [1], the “Ratio IC50” value amounted to 278.

Turning to `O=C(CSc1ccc(Br)cc1)c1c[nH]c2cc(Br)c(F)cc12`, the IC50 was 19 µM with Plasmodium falciparum and over 500 µM with HeLa. For the same compound, in assay [1], the “Ratio IC50” value was 26.

As to `O=C(CSc1ccccc1)c1c[nH]c2ccccc12`, the IC50 with Plasmodium falciparum worked out at 29 µM; with HeLa it was 284 µM. In addition, in assay [1], the “Ratio IC50” value was 10.

On to `O=C(CSc1ccc(Br)cc1)c1c[nH]c2cc(Br)ccc12`, for which the IC50 with Plasmodium falciparum was 279 µM; in the assay on HeLa, over 500 µM. The “Ratio IC50” value in assay [1] stood at 2.

Turning to `O=C(CSc1cccc(Cl)c1)c1c[nH]c2ccccc12`, the IC50 was 44 µM in the assay with Plasmodium falciparum and over 500 µM with HeLa. For the same compound, the “Ratio IC50” value in assay [1] was 11.

Consider `O=C(CSCc1ccccc1)c1c[nH]c2ccccc12`, for which the IC50 in the assay with Plasmodium falciparum is 131 µM; with HeLa it was over 500 µM. In addition, the “Ratio IC50” value in assay [1] is on record as 4.

For `Cc1cc(Br)c2[nH]cc(C(=O)CSc3ccc(Br)cc3)c2c1`, the IC50 in the assay on Plasmodium falciparum came out at 1.8 µM; in the assay with HeLa it was 224 µM. In assay [1], the “Ratio IC50” value was found to be 124.

As for `O=C(CSc1ccc(Br)cc1)c1c[nH]c2cc(Cl)ccc12`, the IC50 in the assay on Plasmodium falciparum is 2.8 µM; in the assay with HeLa it was over 500 µM. Also, in assay [1], the “Ratio IC50” value is recorded as 179.

For `O=C(CSc1ccc(Br)cc1)c1c[nH]c2cc(Cl)c(F)cc12`, the IC50 with Plasmodium falciparum is 12 µM; in the assay on HeLa, over 500 µM. The “Ratio IC50” value in assay [1] was 42.

Consider `Nc1ccc(SCC(=O)c2c[nH]c3ccccc23)cc1`, for which the IC50 in the assay on Plasmodium falciparum stood at 20 µM; in the assay on HeLa it was 36 µM. Besides, in assay [1], the “Ratio IC50” value is on record as 2.

With `O=C(CSc1ccc(Br)cc1)c1cn(Cc2ccccc2)c2ccccc12`, the IC50 with Plasmodium falciparum was 2.7 µM; with HeLa, over 500 µM. Also, the “Ratio IC50” value in assay [1] is 185.

With `O=C(CSc1ccc(F)cc1)c1c[nH]c2ccccc12`, the figures for the IC50 with Plasmodium falciparum and in the assay with HeLa were 1.7 µM and over 500 µM, respectively. For the same compound, in assay [1], the “Ratio IC50” value turned out to be 294.

On to `O=C(CSc1ccc(Cl)cc1)c1c[nH]c2ccccc12`, for which the IC50 in the assay with Plasmodium falciparum is 1.4 µM; with HeLa, over 500 µM. The “Ratio IC50” value in assay [1] stood at 357.

`O=C(CNc1ccc(Cl)cc1)c1c[nH]c2ccccc12`: the IC50 in the assay on Plasmodium falciparum is 29 µM; in the assay on HeLa, 16 µM. Also, the “Ratio IC50” value in assay [1] was found to be 0.6.

Consider `Cc1ccccc1SCC(=O)c1c[nH]c2ccccc12`, for which the values for the IC50 with Plasmodium falciparum and with HeLa were 12 µM and over 500 µM, respectively. In assay [1], the “Ratio IC50” value amounted to 42.

In the case of `O=C(CSc1cccc(Br)c1)c1c[nH]c2ccccc12`, the values for the IC50 in the assay on Plasmodium falciparum and in the assay on HeLa were 106 µM and over 500 µM, respectively. Also, in assay [1], the “Ratio IC50” value was found to be 5.

Regarding `O=C(CSc1cccc(F)c1)c1c[nH]c2ccccc12`, the figures for the IC50 in the assay on Plasmodium falciparum and in the assay on HeLa were 3.9 µM and over 500 µM, respectively. Further, the “Ratio IC50” value in assay [1] is on record as 128.

The compound `CC[C@H]1CN2CCc3cc(OC)c(OC)cc3[C@@H]2C[C@@H]1C[C@H]1NCCc2cc(OC)c(OC)cc21` [EMETINE] gave an IC50 in the assay on HeLa of 0.37 µM.
